The values below come from patent US8013006B2.

One data set concerns HCV replicon. As to the kind of experiment: microbe, parasite or virus in culture. Type of data set: cell-based. The note with it: Hepatitis C virus, 48 h.

Like-named read-outs stand apart in the source and are kept apart here.

On to `CCCn1c(-c2ccc(NS(=O)(=O)Cc3ccccc3)cc2)c(C#N)c2ccc(OC)cc21` [Compound 623], for which the melting point (as a rule, the temperature of the solid-liquid transition) lay in the range of 217 to 218 °C. Further, the IC50 in the data set on HCV replicon (read-out: Replicon IC5Os) was in the range of 0.5 to 2 µM.
In the same order, the values of `CCCn1c(-c2ccc(NC(=O)NCC)cc2)c(C#N)c2ccc(OC)cc21` [Compound 626] are 193 to 194 °C and 0.5 to 2 µM.
The matching figures for `CCCNC(=O)Nc1ccc(-c2c(C#N)c3cc(Cl)ccc3n2CC)cc1` [Compound 628]: 221 to 226 °C and 0.5 to 2 µM.
As for `CCS(=O)(=O)Nc1ccc(-c2c(C#N)c3cc(Cl)ccc3n2CCC(C)C)cc1` [Compound 631], the melting point was in the range of 177 to 182 °C. Further, the IC50 with HCV replicon (read-out: Replicon IC5Os) lay within 0.5 to 2 µM.
The matching figures for `C=Cn1c(-c2ccc(NS(=O)(=O)CC)cc2)c(C#N)c2ccc(OC)cc21` [Compound 633]: 159 to 161 °C and 0.5 to 2 µM.
The matching figures for `C=Cn1c(-c2ccc(NS(=O)(=O)C3CC3)cc2)c(C#N)c2ccc(OC)cc21` [Compound 635]: 200 to 201 °C and less than 0.5 µM.
In the same order, the values of `CCCn1c(-c2ccc(NC(=O)OC(C)C)cc2)c(C#N)c2ccc(OC)cc21` [Compound 641] are 177 to 178 °C and 0.5 to 2 µM.
Turning to `CCn1c(-c2ccc(CNS(C)(=O)=O)cc2)c(C#N)c2ccc(OC)cc21` [Compound 650], the melting point fell in the range of 165 to 166 °C. In addition, the IC50 in the data set on HCV replicon (read-out: Replicon IC5Os) was in the range of 0.5 to 2 µM.
In the same order, the values of `CCn1c(-c2ccc(N(C)S(=O)(=O)CCl)cc2)c(C#N)c2ccc(OC)cc21` [Compound 652] are 191 to 194 °C and less than 0.5 µM.
Compound `CCCOc1ccc2c(C#N)c(-c3ccc(N4CCCS4(=O)=O)cc3)n(CC)c2c1` [Compound 667] displayed a melting point of 242 to 244 °C. For the same compound, the IC50 in the data set with HCV replicon (read-out: Replicon IC5Os) was less than 0.5 µM.
The matching figures for `CCn1c(-c2ccc(NS(=O)(=O)CC)cc2)c(C#N)c2ccc(OCc3cccnc3)cc21` [Compound 669]: 213 to 215 °C and less than 0.5 µM.
Take `CCn1c(-c2ccc(NS(=O)(=O)C3CC3)cc2)c(C#N)c2ccc(OCc3cccnc3)cc21` [Compound 670]: the melting point fell in the range of 231 to 233 °C. Also, in the data set with HCV replicon (read-out: Replicon IC5Os), the IC50 was less than 0.5 µM.
`CCn1c(-c2ccc(NS(=O)(=O)CC)cc2)c(C#N)c2ccc(OCc3ccccn3)cc21` [Compound 671] yielded a melting point of 221 to 222 °C. Besides, the IC50 in the data set with HCV replicon (read-out: Replicon IC5Os) is less than 0.5 µM.
Consider `CCOC(=O)Nc1ccc(-c2c(C#N)c3ccc(OC)cc3n2CCOC)cc1` [Compound 676], for which the melting point lay within 174 to 175 °C. Further, the IC50 in the data set with HCV replicon (read-out: Replicon IC5Os) is 0.5 to 2 µM.
In the same order, the values of `CCCOC(=O)Nc1ccc(-c2c(C#N)c3ccc(OC)cc3n2CCOC)cc1` [Compound 677] are 133 to 134 °C and 0.5 to 2 µM.
In the same order, the values of `CCNC(=O)N1CCc2cc(-c3c(C#N)c4ccc(OC)cc4n3CC)ccc21` [Compound 679] are 212 to 220 °C and 0.5 to 2 µM.
In the same order, the values of `CCCNC(=O)N1CCc2cc(-c3c(C#N)c4ccc(OC)cc4n3CC)ccc21` [Compound 680] are 163 to 168 °C and less than 0.5 µM.
Turning to `CCn1c(-c2ccc3c(c2)CCN3C(=O)NC(C)C)c(C#N)c2ccc(OC)cc21` [Compound 681], the melting point lay within 192 to 197 °C. The IC50 in the data set on HCV replicon (read-out: Replicon IC5Os) was in the range of 0.5 to 2 µM.
In the same order, the values of `CCOc1ccc2c(C#N)c(-c3ccc(N(C)S(C)(=O)=O)cc3)n(C3CCC3)c2c1` [Compound 690] are 192 to 193 °C and 0.5 to 2 µM.
The matching figures for `CCOc1ccc2c(C#N)c(-c3ccc(N(C)S(=O)(=O)CC)cc3)n(C)c2c1` [Compound 692]: 175 to 176 °C and 0.5 to 2 µM.
In the same order, the values of `CCOc1ccc2c(C#N)c(-c3ccc(N(C)S(=O)(=O)CC)cc3)n(CC)c2c1` [Compound 693] are 163 to 164 °C and less than 0.5 µM.
`CCn1c(-c2ccc(N3CCCS3(=O)=O)cc2)c(C#N)c2ccc(OCCF)cc21` [Compound 699] showed a melting point of 255 to 258 °C. Also, the IC50 in the data set on HCV replicon (read-out: Replicon IC5Os) is less than 0.5 µM.
In the same order, the values of `CCn1c(-c2ccc3c(c2)CCN3S(C)(=O)=O)c(C#N)c2ccc(OC)cc21` [Compound 701] are 188 to 194 °C and 0.5 to 2 µM.
In the same order, the values of `CCn1c(-c2ccc3c(c2)CCN3S(=O)(=O)CC)c(C#N)c2ccc(OC)cc21` [Compound 702] are 147 to 150 °C and 0.5 to 2 µM.
The matching figures for `CCCCn1c(-c2ccc(NS(=O)(=O)CC)cc2)c(C#N)c2ccc(OC)cc21` [Compound 707]: 159 to 161 °C and 0.5 to 2 µM.
In the case of `CCCCn1c(-c2ccc(NS(=O)(=O)C3CC3)cc2)c(C#N)c2ccc(OC)cc21` [Compound 709], the melting point was 166 to 168 °C. In the data set on HCV replicon (read-out: Replicon IC5Os), the IC50 is less than 0.5 µM.
The matching figures for `CCCn1c(-c2ccc(NS(=O)(=O)CC)cc2)c(C#N)c2cc(OCc3ccccc3)ccc21` [Compound 713]: 199 to 202 °C and 0.5 to 2 µM.
The matching figures for `COc1ccc2c(C#N)c(-c3ccc(N4CCCS4(=O)=O)cc3)n(CC(C)C)c2c1` [Compound 717]: 205 to 207 °C and 0.5 to 2 µM.
With `COc1ccc2c(C#N)c(-c3cccc(NS(C)(=O)=O)c3)n(C3CCCC3)c2c1` [Compound 720], the melting point fell in the range of 172 to 178 °C. The IC50 with HCV replicon (read-out: Replicon IC5Os) was 0.5 to 2 µM.
In the same order, the values of `COc1ccc2c(C#N)c(-c3cccc(NC(=O)OC(C)C)c3)n(C3CCCC3)c2c1` [Compound 723] are 175 to 180 °C and 0.5 to 2 µM.
As to `CCn1c(-c2ccc(N3CCN(Cc4ccccc4)S3(=O)=O)cc2)c(C#N)c2ccc(OC)cc21` [Compound 727], the melting point is 217 to 218 °C. Moreover, the IC50 in the data set on HCV replicon (read-out: Replicon IC5Os) lay within 0.5 to 2 µM.
The matching figures for `CCn1c(-c2ccc(N3CCCC3=O)cc2)c(C#N)c2ccc(OC(C)C)cc21` [Compound 731]: 173 to 174 °C and less than 0.5 µM.
The matching figures for `COc1ccc2c(C#N)c(-c3ccc(N4CCCC4=O)cc3)n(CCF)c2c1` [Compound 732]: 219 to 221 °C and 0.5 to 2 µM.
In the same order, the values of `COC(=O)Nc1ccc(-c2c(C#N)c3ccc(OC(F)F)cc3n2CC2CC2)cc1` [Compound 734] are 167 to 169 °C and 0.5 to 2 µM.
As for `CCOC(=O)Nc1ccc(-c2c(C#N)c3ccc(OC(F)F)cc3n2CC2CC2)cc1` [Compound 735], the melting point is 123 to 125 °C. In the data set with HCV replicon (read-out: Replicon IC5Os), the IC50 was less than 0.5 µM.
The matching figures for `CC(C)OC(=O)Nc1ccc(-c2c(C#N)c3ccc(OC(F)F)cc3n2CC2CC2)cc1` [Compound 737]: 153 to 155 °C and 0.5 to 2 µM.
In the same order, the values of `N#Cc1c(-c2ccc(NC(=O)OCCF)cc2)n(CC2CC2)c2cc(OC(F)F)ccc12` [Compound 738] are 149 to 151 °C and less than 0.5 µM.
The matching figures for `CCCNC(=O)Nc1ccc(-c2c(C#N)c3ccc(OC(F)F)cc3n2CC2CC2)cc1` [Compound 741]: 194 to 196 °C and less than 0.5 µM.
`CCCCNC(=O)Nc1ccc(-c2c(C#N)c3ccc(OC(F)F)cc3n2CC2CC2)cc1` [Compound 742] yielded a melting point of 171 to 173 °C. The IC50 in the data set on HCV replicon (read-out: Replicon IC5Os) lay within 0.5 to 2 µM.
In the same order, the values of `N#Cc1c(-c2ccc(NC(=O)NC3CCCC3)cc2)n(CC2CC2)c2cc(OC(F)F)ccc12` [Compound 743] are 129 °C and less than 0.5 µM.
`COC(=O)Nc1cccc(-c2c(C#N)c3ccc(OC(F)F)cc3n2CC2CC2)c1` [Compound 744] had a melting point of 92 to 93 °C. Besides, the IC50 in the data set with HCV replicon (read-out: Replicon IC5Os) is less than 0.5 µM.
In the same order, the values of `CCCCn1c(-c2ccc(NC(=O)OCCF)cc2)c(C#N)c2ccc(OC)cc21` [Compound 747] are 136 to 137 °C and less than 0.5 µM.
`CCCCn1c(-c2ccc(NC(=O)NCC)cc2)c(C#N)c2ccc(OC)cc21` [Compound 748] returned a melting point of 186 to 188 °C. In addition, the IC50 in the data set on HCV replicon (read-out: Replicon IC5Os) is less than 0.5 µM.
The matching figures for `CCCCn1c(-c2ccc(NC(=O)NCCC)cc2)c(C#N)c2ccc(OC)cc21` [Compound 749]: 176 to 178 °C and less than 0.5 µM.
In the same order, the values of `CCCCNC(=O)Nc1ccc(-c2c(C#N)c3ccc(OC)cc3n2CCCC)cc1` [Compound 750] are 173 to 174 °C and less than 0.5 µM.
Compound `CCCCn1c(-c2ccc(NC(=O)NC(C)C)cc2)c(C#N)c2ccc(OC)cc21` [Compound 751] displayed a melting point of 159 to 162 °C. Besides, in the data set on HCV replicon (read-out: Replicon IC5Os), the IC50 fell in the range of 0.5 to 2 µM.
In the same order, the values of `CCn1c(-c2ccc3c(c2)N(S(C)(=O)=O)CC3)c(C#N)c2ccc(OC)cc21` [Compound 752] are 198 to 202 °C and 0.5 to 2 µM.
In the same order, the values of `CCn1c(-c2ccc3c(c2)N(S(=O)(=O)CC)CC3)c(C#N)c2ccc(OC)cc21` [Compound 753, 1′-ethanesulfonyl-1-ethyl-6-methoxy-2′,3′-dihydro-1H,1H′-[2,6′]biindolyl-3-carbonitrile] are 157 to 161 °C and less than 0.5 µM.
As to `CCn1c(-c2ccc(N)cc2)c(C#N)c2ccc(OC(C)C)cc21` [Compound 758], the melting point is 149 to 153 °C. The IC50 in the data set with HCV replicon (read-out: Replicon IC5Os) is less than 0.5 µM.
The matching figures for `CCn1c(-c2ccc(NC(=O)CCc3ccccc3)cc2)c(C#N)c2ccc(OC(C)C)cc21` [Compound 762]: 190 to 193 °C and less than 0.5 µM.
In the same order, the values of `CCn1c(-c2ccc(NC(=O)c3ccccc3)cc2)c(C#N)c2ccc(OC(C)C)cc21` [Compound 763] are 209.2 to 209.7 °C and less than 0.5 µM.
On to `CCn1c(-c2ccc(NC(=O)c3ccc(F)cc3)cc2)c(C#N)c2ccc(OC(C)C)cc21` [Compound 764], for which the melting point lay within 213.5 to 231.7 °C. Further, in the data set with HCV replicon (read-out: Replicon IC5Os μM), the IC50 is less than 0.5 µM.
